Experimental data published in patent publication US20240190862A1 (AMGEN INC., priority 2019, published 2024).
pIC50: −log10 of the molar value. Read-outs that look alike come from different tables or passages of the source.

Tests used:
[1] = biological target: GDP-bound KRAS protein (aa 1-169) G12D/C118A (Homo sapiens (Human), UniProt P01116, C118A/G12D); experiment: Coupled Nucleotide Exchange Assay (KRAS G12D); assay type: biochemical
Description: (§1) Coupled Nucleotide Exchange Assay: Purified GDP-bound KRAS protein (aa 1-169), containing either G12C or G12D, as well as C118A amino acid substitutions and an N-terminal His-tag, was pre-incubated in assay buffer (25 mM HEPES pH 7.4, 10 mM MgCl2, and 0.01% Triton X-100) with a compound dose-response titration for either 5 min or 20 hours (see Table 15). Following compound pre-incubation, purified SOS protein (aa 564-1049) and GTP (Roche 10106399001) were added to the assay wells and incubated for an additional 30 min. To determine the extent of inhibition of SOS-mediated nucleotide exchange, purified GST-tagged cRAF (aa 1-149), nickel chelate AlphaLISA acceptor beads (PerkinElmer AL108R), and AlphaScreen glutathione donor beads (PerkinElmer 6765302) were added to the assay wells and incubated for 10 minutes. The assay plates were then read on a PerkinElmer EnVision Multilabel Reader, using AlphaScreen® technology, and data were analyzed using a 4-parameter logistic model to calculate IC50 values.

[2] = biological target: GDP-bound KRAS protein (aa 1-169) G12C/C118A (Homo sapiens (Human), UniProt P01116, C118A/G12C); experiment: Coupled Nucleotide Exchange Assay (KRAS G12C); assay type: biochemical
Description: as §1

[3] = 20 h compound pre-incubation, read-out: GDP KRAS G12D 20 h Coupled Exchange IC50 IP
[4] = 5 min compound pre-incubation, read-out: GDP KRAS G12C 5 min Coupled Exchange IC50 IP
[5] = 20 h compound pre-incubation, read-out: GDP KRAS G12C 20 h Coupled Exchange IC50 IP

Sequence of GDP-bound KRAS protein (aa 1-169) G12D/C118A (P01116 other isoform, or with tags, fused parts or gaps G12D/C118A): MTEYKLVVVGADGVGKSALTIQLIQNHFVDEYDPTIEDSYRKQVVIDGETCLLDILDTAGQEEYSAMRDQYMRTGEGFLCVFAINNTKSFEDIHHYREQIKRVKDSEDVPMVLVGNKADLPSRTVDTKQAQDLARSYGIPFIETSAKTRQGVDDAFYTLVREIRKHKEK
Sequence of GDP-bound KRAS protein (aa 1-169) G12C/C118A (P01116 other isoform, or with tags, fused parts or gaps G12C/C118A): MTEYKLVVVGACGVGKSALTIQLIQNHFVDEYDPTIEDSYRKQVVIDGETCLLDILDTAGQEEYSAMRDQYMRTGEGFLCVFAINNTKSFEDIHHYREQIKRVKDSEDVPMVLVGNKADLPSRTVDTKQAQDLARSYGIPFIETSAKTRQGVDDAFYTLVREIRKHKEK

Structure (SMILES) | pIC50 [1, 3] | pIC50 [2, 4] | pIC50 [2, 5] | pIC50 [1] | pIC50 ([2]; GDP KRAS G12C 5 min Coupled Exchange IC50 IP, 5 min compound pre-incubation) | pIC50 ([2]; GDP KRAS G12C 20 h Coupled Exchange IC50 IP, 20 h compound pre-incubation)
Cc1ccnc(C(C)C)c1-n1c(=O)nc(N2CCN(C(=O)[C@H]3O[C@@H]3C)C[C@@H]2C)c2cc(Cl)c(-c3ccccc3F)nc21 (mixture of isomers) [Example 17, 6-Chloro-7-(2-fluorophenyl)-1-(2-isopropyl-4-methylpyridin-3-yl)-4-((S)-2-methyl-4-((2R,3S)-3-methyloxirane-2-carbonyl)piperazin-1-yl)pyrido[2,3-d]pyrimidin-2(1H)-one and 6-chloro-7-(2-fluorophenyl)-1-(2-isopropyl-4-methylpyridin-3-yl)-4-((S)-2-methyl-4-((2S,3R)-3-methyloxirane-2-carbonyl)piperazin-1-yl)pyrido[2,3-d]pyrimidin-2(1H)-one] | < 3.60 | 4.75 | 7.02 |  |  | 
Cc1ccnc(C(C)C)c1-n1c(=O)nc(N2CCN(C(=O)CCl)C[C@@H]2C)c2cc(Cl)c(-c3ccccc3F)nc21 [Example 1, (S)-6-Chloro-4-(4-(2-chloroacetyl)-2-methylpiperazin-1-yl)-7-(2-fluorophenyl)-1-(2-isopropyl-4-methylpyridin-3-yl)pyrido[2,3-d]pyrimidin-2(1H)-one] | < 3.60 | 5.89 | 7.59 |  |  | 
Cc1ccnc(C(C)C)c1-n1c(=O)nc(N2CCN(C(=O)CF)C[C@@H]2C)c2cc(Cl)c(-c3ccccc3F)nc21 [Example 2, (S)-6-Chloro-4-(4-(2-fluoroacetyl)-2-methylpiperazin-1-yl)-7-(2-fluorophenyl)-1-(2-isopropyl-4-methylpyridin-3-yl)pyrido[2,3-d]pyrimidin-2(1H)-one] |  |  |  | < 3.60 | < 3.60 | 4.87
Cc1ccnc(C(C)C)c1-n1c(=O)nc(N2CCN(C(=O)COc3ccccc3)C[C@@H]2C)c2cc(Cl)c(-c3ccccc3F)nc21 [Example 6, (S)-6-Chloro-7-(2-fluorophenyl)-1-(2-isopropyl-4-methylpyridin-3-yl)-4-(2-methyl-4-(2-phenoxyacetyl)piperazin-1-yl)pyrido[2,3-d]pyrimidin-2(1H)-one] | < 3.60 | < 3.60 | 3.88 |  |  | 
Cc1ccnc(C(C)C)c1-n1c(=O)nc(N2CCN(C(=O)COc3c(Cl)cccc3Cl)C[C@@H]2C)c2cc(Cl)c(-c3ccccc3F)nc21 [Example 7, (S)-6-Chloro-4-(4-(2-(2,6-dichlorophenoxy)acetyl)-2-methylpiperazin-1-yl)-7-(2-fluorophenyl)-1-(2-isopropyl-4-methylpyridin-3-yl)pyrido[2,3-d]pyrimidin-2(1H)-one] | < 3.60 | < 3.60 | 4.58 |  |  | 
Cc1ccnc(C(C)C)c1-n1c(=O)nc(N2CCN(C(=O)COc3c(F)c(F)cc(F)c3F)C[C@@H]2C)c2cc(Cl)c(-c3ccccc3F)nc21 [Example 9, (S)-6-chloro-7-(2-fluorophenyl)-1-(2-isopropyl-4-methylpyridin-3-yl)-4-(2-methyl-4-(2-(2,3,5,6-tetrafluorophenoxy)acetyl)piperazin-1-yl)pyrido[2,3-d]pyrimidin-2(1H)-one] | < 3.60 | 4.47 | 5.61 |  |  | 
Cc1ccnc(C(C)C)c1-n1c(=O)nc(N2CCN(C(=O)COc3c(F)cc(F)cc3F)C[C@@H]2C)c2cc(Cl)c(-c3ccccc3F)nc21 [Example 11, (S)-6-Chloro-7-(2-fluorophenyl)-1-(2-isopropyl-4-methylpyridin-3-yl)-4-(2-methyl-4-(2-(2,4,6-trifluorophenoxy)acetyl)piperazin-1-yl)pyrido[2,3-d]pyrimidin-2(1H)-one] | < 3.60 | 4.16 | 5.26 |  |  | 
Cc1ccnc(C(C)C)c1-n1c(=O)nc(N2CCN(C(=O)COc3cccc(F)c3F)C[C@@H]2C)c2cc(Cl)c(-c3ccccc3F)nc21 [Example 12, (S)-6-Chloro-7-(2-fluorophenyl)-1-(2-isopropyl-4-methylpyridin-3-yl)-4-(2-methyl-4-(2-(2,3-difluorophenoxy)acetyl)piperazin-1-yl)pyrido[2,3-d]pyrimidin-2(1H)-one] | < 3.60 | 4.45 | 5.69 |  |  | 
Cc1ccnc(C(C)C)c1-n1c(=O)nc(N2CCN(C(=O)[C@H]3CN3)C[C@@H]2C)c2cc(Cl)c(-c3ccccc3F)nc21 [Example 14, 4-((S)-4-((R)-Aziridine-2-carbonyl)-2-methylpiperazin-1-yl)-6-chloro-7-(2-fluorophenyl)-1-(2-isopropyl-4-methylpyridin-3-yl)pyrido[2,3-d]pyrimidin-2(1H)-one] | < 3.60 | 4.05 | 5.81 |  |  | 
Cc1ccnc(C(C)C)c1-n1c(=O)nc(N2CCN(C(=O)[C@@H]3CO3)C[C@@H]2C)c2cc(Cl)c(-c3ccccc3F)nc21 [Example 15, 6-Chloro-7-(2-fluorophenyl)-1-(2-isopropyl-4-methylpyridin-3-yl)-4-((S)-2-methyl-4-((S)-oxirane-2-carbonyl)piperazin-1-yl)pyrido[2,3-d]pyrimidin-2(1H)-one] | < 3.60 | 4.13 | 6.08 |  |  | 
CCOC(=O)[C@H]1O[C@@H]1C(=O)N1CCN(c2nc(=O)n(-c3c(C)ccnc3C(C)C)c3nc(-c4ccccc4F)c(Cl)cc23)[C@@H](C)C1 [Example 18, Ethyl (2S,3S)-3-((S)-4-(6-chloro-7-(2-fluorophenyl)-1-(2-isopropyl-4-methylpyridin-3-yl)-2-oxo-1,2-dihydropyrido[2,3-d]pyrimidin-4-yl)-3-methylpiperazine-1-carbonyl)oxirane-2-carboxylate] | < 3.60 | 4.62 | 6.28 |  |  | 
Cc1ccnc(C(C)C)c1-n1c(=O)nc(N2CCN(C(=O)[C@@H]3O[C@H]3C(=O)O)C[C@@H]2C)c2cc(Cl)c(-c3ccccc3F)nc21 [Example 20, (2R,3R)-3-((S)-4-(6-chloro-7-(2-fluorophenyl)-1-(2-isopropyl-4-methylpyridin-3-yl)-2-oxo-1,2-dihydropyrido[2,3-d]pyrimidin-4-yl)-3-methylpiperazine-1-carbonyl)oxirane-2-carboxylic acid] | < 3.60 |  | 6.00 |  |  | 
Cc1ccnc(C(C)C)c1-n1c(=O)nc(N2CCN(C(=O)[C@@H]3O[C@H]3CN3CCCCC3)C[C@@H]2C)c2cc(Cl)c(-c3ccccc3F)nc21 [Example 21, 6-Chloro-7-(2-fluorophenyl)-1-(2-isopropyl-4-methylpyridin-3-yl)-4-((S)-2-methyl-4-((2R,3S)-3-(piperidin-1-ylmethyl)oxirane-2-carbonyl)piperazin-1-yl)pyrido[2,3-d]pyrimidin-2(1H)-one] | < 3.60 | 5.95 | 8.30 |  |  | 
Cc1ccnc(C(C)C)c1-n1c(=O)nc(N2CCN(C(=O)[C@@H]3O[C@H]3CO)C[C@@H]2C)c2cc(Cl)c(-c3ccccc3F)nc21 [Example 22, 6-Chloro-7-(2-fluorophenyl)-4-((S)-4-((2R,3S)-3-(hydroxymethyl)oxirane-2-carbonyl)-2-methylpiperazin-1-yl)-1-(2-isopropyl-4-methylpyridin-3-yl)pyrido[2,3-d]pyrimidin-2(1H)-one] | < 3.60 | 5.20 | 7.19 |  |  | 
Cc1ccnc(C(C)C)c1-n1c(=O)nc(N2CCN(C(=O)C3CO3)[C@@H](CC#N)C2)c2cc(Cl)c(-c3ccccc3F)nc21 (stereo partly drawn) [Example 23, 2-((2S)-4-(6-Chloro-7-(2-fluorophenyl)-1-(2-isopropyl-4-methylpyridin-3-yl)-2-oxo-1,2-dihydropyrido[2,3-d]pyrimidin-4-yl)-1-(oxirane-2-carbonyl)piperazin-2-yl)acetonitrile] | < 3.60 | < 3.60 | 6.37 |  |  | 
Cc1ccnc(C(C)C)c1-n1c(=O)nc(N2CC3(CN(C(=O)C4CO4)C3)C2)c2cc(Cl)c(-c3ccccc3F)nc21 (stereo not shown) [Example 24, 6-Chloro-7-(2-fluorophenyl)-1-(2-isopropyl-4-methylpyridin-3-yl)-4-(6-(oxirane-2-carbonyl)-2,6-diazaspiro[3.3]heptan-2-yl)pyrido[2,3-d]pyrimidin-2(1H)-one] | < 3.60 | 3.65 | 4.38 |  |  | 
Cc1ccnc(C(C)C)c1-n1c(=O)nc(N2CCC3(CC2)CN(C(=O)[C@H]2CO2)C3)c2cc(Cl)c(-c3ccccc3F)nc21 [Example 25, (R)-6-chloro-7-(2-fluorophenyl)-1-(2-isopropyl-4-methylpyridin-3-yl)-4-(2-(oxirane-2-carbonyl)-2,7-diazaspiro[3.5]nonan-7-yl)pyrido[2,3-d]pyrimidin-2(1H)-one] | < 3.60 |  | 5.15 |  |  | 
Cc1ccnc(C(C)C)c1-n1c(=O)nc(N2CC[C@@H](NC(=O)C3CO3)C2)c2cc(Cl)c(-c3ccccc3F)nc21 (stereo partly drawn) [Example 26, N—((R)-1-(6-Chloro-7-(2-fluorophenyl)-1-(2-isopropyl-4-methylpyridin-3-yl)-2-oxo-1,2-dihydropyrido[2,3-d]pyrimidin-4-yl)pyrrolidin-3-yl)oxirane-2-carboxamide] | < 3.60 | 3.71 | 5.52 |  |  | 
Cc1ccnc(C(C)C)c1-n1c(=O)nc(N2CC(NC(=O)C3CO3)C2)c2cc(Cl)c(-c3ccccc3F)nc21 (stereo not shown) [Example 27] | < 3.60 | 5.36 | 7.74 |  |  | 
